Laboratory results as given in US6632838B1, “Use of bissulfonamides for producing medicines for the treatment of hyperlipidemia” (Aventis Pharma Deutschland GmbH, priority 1999, dated 2003).

Key:
[1] = test system: human LDL receptor gene promoter coupled to firefly luciferase reporter gene in Hep-G2 cell line; assay: In vitro determination of LDL receptor induction using the luciferase assay; format: cell-based; details: luminescence, DMSO control=100%
Description: 1) In Vitro Determination of LDL Receptor Induction Using the Luciferase Assay
LDL-receptor induction is determined using the luciferase assay as follows. A regulatory DNA fragment (4 kb) of the human LDL receptor gene containing the complete promoter region is coupled to the firefly luciferase reporter gene and stably transfixed into a Hep-G2 cell line. Cells from this line were seeded out on collagen-coated 96-well plates in MEM (minimum essential medium). After 24 hours in culture, the test substances, dissolved in DMSO, were added in final concentrations of 10 nM to 10 μM (final DMSO concentration=2%). The substances were incubated for 12-18 hours overnight (4 wells/conc. in each case), then D-luciferin was added as substrate for the luciferase, and the luminescence was measured. The measured luminescence as a percentage of the control (control=100%) incubated only with DMSO indicates the extent of the relative LDL receptor induction (Table 2).
Further details of the method are described in Current Protocols in Molecular Biology, F. M. Ausubel, R. Brent, R. E. Kingston, D. D. Moore, J. G. Seidman, J. A. Smith, and K. Struhl, eds., J. Wiley and Sons Inc., U.S.A.

[2] = test system: hyperlipemic hamsters (plasma lipid level); assay: In vivo reduction in LDL cholesterol / plasma lipid level in hyperlipemic hamsters; parameters: species or system Syrian hamster; details: vs placebo-treated control
Description: In Vivo Determination of Reduction in LDL Cholesterol in the Hamster; Cholesterol-lowering Effect of LDL Receptor Inducers in Hyperlipemic Hamsters
In this animal experiment, the effect of LDL receptor inducers after bolus adiminstration to hamsters on a lipid-rich diet was investigated.
The experimental animals used were male Syrian hamsters (Charles River) with an average body weight of 100 to 120 g at the start of adaption. The animals were divided into groups (n=6) on the basis of the body weight. Severe hyperlipidemia was induced by feeding with a diet supplemented with 15% butter and 3% cholesterol. The treatment started after preliminary feeding for 2 weeks. The test substances were administered orally by gavage once a day over a period of 10 days. The plasma lipid level was analyzed after 10 days.

[3] = 20 mg/kg p.o. once a day for ten days
[4] = 40 mg/kg p.o. once a day for ten days

| SMILES | LDL receptor induction (% of control) ([1]; 0.15 μM) [%] | LDL receptor induction (% of control) ([1]; 1.5 μM) | LDL receptor induction (% of control) ([1]; 4 μM) | also measured |
| --- | --- | --- | --- | --- |
| O=S(=O)(NCCc1cccs1)c1cc(S(=O)(=O)NCCc2cccs2)c(NCc2cccc3ccccc23)cc1NCCN1CCCC1 [Example 95] | 198 | 267% | 301% | Relative change in the plasma lipid level: LDL cholesterol [2, 3]: −44%; Relative change in the plasma lipid level: Total cholesterol [2, 3]: −45%; Relative change in the plasma lipid level: Triglycerides [2, 3]: −61%; Relative change in the plasma lipid level: LDL cholesterol [2, 4]: −49%; Relative change in the plasma lipid level: Total cholesterol [2, 4]: −50%; Relative change in the plasma lipid level: Triglycerides [2, 4]: −73% |
| CN1CCN(c2cc(NCCCc3ccccc3)c(S(=O)(=O)N3CCCC3)cc2S(=O)(=O)N2CCCC2)CC1 [Example 26] | 146 | 206% | – | – |
| CCN(CCN(C)C)c1cc(NC2CCN(Cc3ccccc3)CC2)c(S(=O)(=O)N2CCCCC2)cc1S(=O)(=O)N1CCCCC1 [Example 65] | 177 | 292% | 314% | – |
| CN1CCN(c2cc(N3CC=C(c4ccccc4)CC3)c(S(=O)(=O)N(C)c3ccccc3)cc2S(=O)(=O)N(C)c2ccccc2)CC1 [Example 108] | – | 191% | 249% | – |
| CCN(CCN(C)C)c1cc(N2CCC(c3ccccc3)CC2)c(S(=O)(=O)NCCc2cccs2)cc1S(=O)(=O)NCCc1cccs1 [Example 93] | 213 | 293% | 337% | – |
| CN1CCN(c2cc(NCCCc3ccccc3)c(S(=O)(=O)N3CCOCC3)cc2S(=O)(=O)N2CCOCC2)CC1 [Example 15] | 137 | 243% | – | – |
| CN(c1ccccc1)S(=O)(=O)c1cc(S(=O)(=O)N(C)c2ccccc2)c(N2CCNCC2)cc1NCc1ccccn1 [Example 46] | 152 | 223% | – | – |
| COCCCNS(=O)(=O)c1cc(S(=O)(=O)NCCCOC)c(N2CCN(c3ccccc3)CC2)cc1NCCN1CCCC1 [Example 102] | – | 239% | 298% | – |
| CN1CCN(c2cc(NCCCc3ccccc3)c(S(=O)(=O)N(C)c3ccccc3)cc2S(=O)(=O)N(C)c2ccccc2)CC1 [Example 25] | 168 | 189% | – | – |
| CN1CCN(c2cc(NCc3ccccc3)c(S(=O)(=O)NC3CCCCC3)cc2S(=O)(=O)NC2CCCCC2)CC1 [Example 2] | – | 155% | 227% | – |
| CN1CCN(c2cc(NCc3ccccc3)c(S(=O)(=O)N(C)c3ccccc3)cc2S(=O)(=O)N(C)c2ccccc2)CC1 [Example 9] | 244 | 402% | – | – |
| CN1CCN(c2cc(NCc3ccccc3)c(S(=O)(=O)N3CCCC3)cc2S(=O)(=O)N2CCCC2)CC1 [Example 5] | – | – | 240% (4 μM) | – |
| CN(C)CCNc1cc(NCc2ccc(Cl)c(Cl)c2)c(S(=O)(=O)N2CCCCC2)cc1S(=O)(=O)N1CCCCC1 [Example 98] | – | 249% | 285% | Relative change in the plasma lipid level: LDL cholesterol [2, 3]: −26%; Relative change in the plasma lipid level: Total cholesterol [2, 3]: −23%; Relative change in the plasma lipid level: Triglycerides [2, 3]: −27%; Relative change in the plasma lipid level: LDL cholesterol [2, 4]: −44%; Relative change in the plasma lipid level: Total cholesterol [2, 4]: −46%; Relative change in the plasma lipid level: Triglycerides [2, 4]: −68% |
| CCN(CCN(C)C)S(=O)(=O)c1cc(S(=O)(=O)N(CC)CCN(C)C)c(N2CCN(C)CC2)cc1N(C)Cc1ccccc1 [Example 61] | – | – | 190% (4 μM) | – |
| CN1CCN(c2cc(N3CCN(C)CC3)c(S(=O)(=O)N3CCCCC3)cc2S(=O)(=O)N2CCCCC2)CC1 [Example 8] | – | – | 190% (4 μM) | – |
| CCN(CCN(C)C)c1cc(N2CCN(c3ccccc3)CC2)c(S(=O)(=O)NCCCOC)cc1S(=O)(=O)NCCCOC [Example 96] | 138 | 278% | 326% | – |
| CN1CCN(c2cc(NCc3ccccn3)c(S(=O)(=O)N(C)c3ccccc3)cc2S(=O)(=O)N(C)c2ccccc2)CC1 [Example 10] | 144 | – | 270% | – |
| CN1CCN(c2cc(N3CCN(C)CC3)c(S(=O)(=O)N(C)Cc3ccccc3)cc2S(=O)(=O)N(C)Cc2ccccc2)CC1 [Example 3] | 184 | 414% | – | – |
| CCN(CCN(C)C)c1cc(N2CCN(c3ccccc3)CC2)c(S(=O)(=O)N2CCCCC2)cc1S(=O)(=O)N1CCCCC1 [Example 64, N-Ethyl-N′,N′-dimethyl-N-[5-(4-phenyl-piperazin-1-yl)-2,4-bis-(piperidine-1-sulfonyl)-phenyl]ethane-1,2-diamine] | – | – | – | melting point: 116 to 118 °C |
| CCN(CC)S(=O)(=O)c1cc(S(=O)(=O)N(CC)CC)c(N2CCN(C)CC2)cc1NCc1ccccc1 [Example 16] | – | 214% (1.5 μM) | – | – |
| CN(C)CCNc1cc(NCc2cccc(Cl)c2)c(S(=O)(=O)N2CCCCC2)cc1S(=O)(=O)N1CCCCC1 [Example 99] | – | 247% | 322% | – |
| CCN(CCN(C)C)c1cc(NCCc2ccc(OC)c(OC)c2)c(S(=O)(=O)NCCc2cccs2)cc1S(=O)(=O)NCCc1cccs1 [Example 92] | – | 213% | 233% | – |
| CC(C)CNS(=O)(=O)c1cc(S(=O)(=O)NCC(C)C)c(N2CCN(C)CC2)cc1NCc1ccccc1 [Example 12] | – | 244% (1.5 μM) | – | – |
| O=S(=O)(c1cc(S(=O)(=O)N2CCCCC2)c(NCc2cccc(Cl)c2)cc1NCCN1CCCC1)N1CCCCC1 [Example 84] | – | 199% | 223% | – |
| CCN(CCN(C)C)c1cc(N2CCN(c3ccccc3)CC2)c(S(=O)(=O)NCCc2cccs2)cc1S(=O)(=O)NCCc1cccs1 [Example 94] | – | 194% | 321% | – |
| CCN(CCN(C)C)c1cc(NCCCCc2ccccc2)c(S(=O)(=O)N2CCCCC2)cc1S(=O)(=O)N1CCCCC1 [Example 70] | 194 | – | 238% | – |
